Read-outs that look alike come from different tables or passages of the source. Starred links: 1 amine or outer side, 2 acyl side, 3 side chain; linkers in the order of their positions; H or OH if unused. Non-standard residues stand in square brackets, D forms with d. Residues, ends and D or L forms follow the SMILES beside them. X61 = C[C@@H]1CN(CCOC[C@@H](C)[C@@H](C(=O)[*:2])N(C)[*:1])[C@H](C)CO1; X27 = C[C@H](COCC(=O)N1CCN(C2CCOCC2)CC1)[C@@H](C(=O)[*:2])N(C)[*:1]; X48 = C[C@@H](CN1CCN(S(C)(=O)=O)CC1)[C@@H](C(=O)[*:2])N(C)[*:1]; X28 = CCN1CCN(C(=O)OC[C@H](C)[C@@H](C(=O)[*:2])N(C)[*:1])CC1; X49 = C[C@H](CCC(=O)N1CCN(C)CC1)[C@@H](C(=O)[*:2])N(C)[*:1]; X35 = C[C@H](CN1CCC2(CC1)OCCO2)[C@@H](C(=O)[*:2])N(C)[*:1]; X55 = C[C@H](CN(C)CC(=O)N(C)C)[C@@H](C(=O)[*:2])N(C)[*:1]; X67 = C[C@H](CCN1CCOC[C@@H]1C)[C@@H](C(=O)[*:2])N(C)[*:1]; X46 = C[C@H](CN1CC2CCC(C1)O2)[C@@H](C(=O)[*:2])N(C)[*:1]; X68 = C[C@H](CCN1CCC(C#N)CC1)[C@@H](C(=O)[*:2])N(C)[*:1]; X53 = C[C@H](CN(C)Cc1cccnc1)[C@@H](C(=O)[*:2])N(C)[*:1]; MeBmt = C/C=C/C[C@@H](C)[C@@H](O)[C@H](NC)C(=O)O; NMeL = CN[C@@H](CC(C)C)C(=O)O; NMeV = CN[C@H](C(=O)O)C(C)C; dNMeA = CN[C@H](C)C(=O)O; Abu = CC[C@H](N)C(=O)O
Key:
[1] = test system: genotype 1b subgenomic HCV replicon in Huh7.5 cells; format: cell-based, hepatitis C virus; settings: read-out: RPLN-1b IC50
Outline: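 Huh7.5 cells carrying genotype 1b subgenomic HCV replicon with renilla luciferase-neomycin reporter, in phenol red-free DMEM without G418. Luciferase measured after 72 h compound exposure relative to DMSO-treated cells; cytotoxicity (CC50) by Cell Titer-Glo.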

[2] = test system: peripheral blood mononuclear cells (PBMC); assay: Anti-proliferative or immunosuppressive activity, BrdU incorporation in PHA-stimulated PBMC; format: cell-based; settings: PHA 3 μg/ml, 60 hour compound treatment; read-out: EMV PBMC IC50
Outline: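 Fresh PBMCs from two donors, 30,000 per well in X-VIVO 15 medium, stimulated with 3 μg/ml PHA to drive T-cell proliferation. Proliferation measured as BrdU incorporation into DNA by BrdU ELISA.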

[3] = biological target: organic anion transporting polypeptide 1B1 (OATP1B1) (Homo sapiens (Human), UniProt Q9Y6L6); assay: OATP assay in CHO-OATP1B1 cells;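 further: inhibition of probe substrate uptake into the cells, ten minutes exposure, accumulated substrate read by fluorescence once cells were lysed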
cyclophilin A (CypA) = cyclophilin A (CypA) (Homo sapiens (Human), UniProt P62937); assay: Inhibitor binding to cyclophilin proteins by SPR, CypA; design: unit not given here; settings: 1:1 binding model;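 further: Single-cycle kinetics on a Biacore T200, compound injected at several concentrations for 1 min each at 50 µL/min, then 10 min dissociation, in HEPES pH 7.4 buffer with 3% DMSO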
cyclophilin B (CypB) = cyclophilin B (CypB) (Homo sapiens (Human), UniProt P23284); assay: Inhibitor binding to cyclophilin proteins by SPR, CypB; design: unit not given here; settings: 1:1 binding model
Outline: (§1)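 Running buffer: 10 mM HEPES pH 7.4, 150 mM NaCl, 0.05% P20, 3% DMSO, with compound present. Capture of avi-tagged mono-biotinylated cyclophilin; single-cycle series, 1 min contact, 10 min dissociation. Rates and affinity fitted to a 1:1 interaction model.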

CypF = CypF (Homo sapiens (Human), UniProt P30405); assay: Inhibitor binding to cyclophilin proteins by SPR, CypF; settings: 1:1 binding model
Outline: as §1

[4] = genotype 1b replicon, 72 h incubation

Sequence of organic anion transporting polypeptide 1B1 (OATP1B1) (Q9Y6L6 whole entry): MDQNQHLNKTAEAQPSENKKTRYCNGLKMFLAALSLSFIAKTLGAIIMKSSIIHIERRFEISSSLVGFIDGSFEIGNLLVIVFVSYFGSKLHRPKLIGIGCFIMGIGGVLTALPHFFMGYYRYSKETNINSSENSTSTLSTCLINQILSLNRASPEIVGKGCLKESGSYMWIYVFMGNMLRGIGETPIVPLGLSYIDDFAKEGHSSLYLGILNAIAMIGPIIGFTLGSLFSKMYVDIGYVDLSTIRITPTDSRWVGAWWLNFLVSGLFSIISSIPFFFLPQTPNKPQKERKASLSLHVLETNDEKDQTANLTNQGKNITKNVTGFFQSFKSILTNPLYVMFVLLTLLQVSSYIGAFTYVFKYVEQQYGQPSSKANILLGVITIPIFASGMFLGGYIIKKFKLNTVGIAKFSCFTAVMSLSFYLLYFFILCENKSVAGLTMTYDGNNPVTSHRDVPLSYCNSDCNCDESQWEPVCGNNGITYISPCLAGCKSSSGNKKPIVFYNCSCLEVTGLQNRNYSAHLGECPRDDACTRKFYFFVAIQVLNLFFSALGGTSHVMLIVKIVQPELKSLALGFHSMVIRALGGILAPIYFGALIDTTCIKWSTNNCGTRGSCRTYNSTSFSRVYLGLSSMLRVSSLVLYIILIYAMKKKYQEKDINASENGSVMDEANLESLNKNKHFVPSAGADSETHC
Sequence of cyclophilin A (CypA) (P62937 whole entry): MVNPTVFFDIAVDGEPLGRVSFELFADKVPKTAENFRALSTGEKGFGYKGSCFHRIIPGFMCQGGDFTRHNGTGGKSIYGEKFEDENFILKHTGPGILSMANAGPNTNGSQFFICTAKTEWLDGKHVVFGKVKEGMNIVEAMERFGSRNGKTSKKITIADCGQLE
Sequence of CypF (P30405 30-207): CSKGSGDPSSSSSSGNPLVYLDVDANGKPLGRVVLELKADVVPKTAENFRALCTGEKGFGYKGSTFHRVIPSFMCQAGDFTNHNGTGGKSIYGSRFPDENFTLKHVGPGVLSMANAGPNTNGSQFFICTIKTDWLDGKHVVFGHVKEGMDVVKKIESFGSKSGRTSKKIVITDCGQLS
Sequence of cyclophilin B (CypB) (P23284 34-216): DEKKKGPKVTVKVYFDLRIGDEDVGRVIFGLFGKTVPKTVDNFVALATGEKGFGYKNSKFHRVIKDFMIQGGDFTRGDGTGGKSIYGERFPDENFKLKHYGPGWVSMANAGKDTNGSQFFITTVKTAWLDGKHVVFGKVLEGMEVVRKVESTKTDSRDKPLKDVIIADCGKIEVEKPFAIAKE

SMILES | IC50 [1] [µM] | IC50 [2] [µM] | IC50 [3] [µM] | CypA Kd (cyclophilin A (CypA)) | CypB Kd (cyclophilin B (CypB)) | CypF Kd (CypF) [µM] | IC50 [1, 4] [µM]
C/C=C/C[C@@H](C)[C@@H](O)[C@H]1C(=O)N[C@@H](CC)C(=O)N(C)[C@H](C)C(=O)N(C)[C@@H]([C@H](C)COCC(=O)N2CCN(C3CCOCC3)CC2)C(=O)N[C@@H](C(C)C)C(=O)N(C)[C@@H](CC(C)C)C(=O)N[C@@H](C)C(=O)N[C@H](C)C(=O)N(C)[C@@H](CC(C)C)C(=O)N(C)[C@@H](CC(C)C)C(=O)N(C)[C@@H](C(C)C)C(=O)N1C [Compound 2.6.2, 3-[D-Ala]-4-[(2S,3S)-4-(2-(4-cyclohexylpiperazin-1-yl)-2-oxoethoxy)-3-methyl-2-(methylamino)butanoyl]-cyclosporin] (cyclo([MeBmt][Abu][dNMeA][X27]V[NMeL]A[dA][NMeL][NMeL][NMeV])) | 0.14 | 17.3 | 3.5 | 1.3 | 0.7 | 0.0006 | –
C/C=C/C[C@@H](C)[C@@H](O)[C@H]1C(=O)N[C@@H](CC)C(=O)N(C)[C@H](C)C(=O)N(C)[C@@H]([C@H](C)COCCN2C[C@@H](C)OC[C@H]2C)C(=O)N[C@@H](C(C)C)C(=O)N(C)[C@@H](CC(C)C)C(=O)N[C@@H](C)C(=O)N[C@H](C)C(=O)N(C)[C@@H](CC(C)C)C(=O)N(C)[C@@H](CC(C)C)C(=O)N(C)[C@@H](C(C)C)C(=O)N1C [Compound 2.8.4, 3-[D-Ala]-4-[(2S,3S)-4-(2-((2R,5R)-2,5-dimethylmorpholino)ethoxy)-3-methyl-2-(methylamino)butanoyl]-cyclosporin] (cyclo(A[dA][NMeL][NMeL][NMeV][MeBmt][Abu][dNMeA][X61]V[NMeL])) | – | 10.7 | 3.6 | 0.9 | 0.7 | 0.0007 | 0.045
C/C=C/C[C@@H](C)[C@@H](O)[C@H]1C(=O)N[C@@H](CC)C(=O)N(C)[C@H](C)C(=O)N(C)[C@@H]([C@H](C)CCN2CCC(C#N)CC2)C(=O)N[C@@H](C(C)C)C(=O)N(C)[C@@H](CC(C)C)C(=O)N[C@@H](C)C(=O)N[C@H](C)C(=O)N(C)[C@@H](CC(C)C)C(=O)N(C)[C@@H](CC(C)C)C(=O)N(C)[C@@H](C(C)C)C(=O)N1C [Compound 2.18.2, 3-[D-Ala]-4-[(2S,3R)-5-(4-cyanopiperidin-1-yl)-3-methyl-2-(methylamino)pentanoyl]-cyclosporin] (cyclo(A[dA][NMeL][NMeL][NMeV][MeBmt][Abu][dNMeA][X68]V[NMeL])) | – | 7.3 | 2.4 | 1.1 | 0.7 | 0.0006 | 0.058
C/C=C/C[C@@H](C)[C@@H](O)[C@H]1C(=O)N[C@@H](CC)C(=O)N(C)[C@H](C)C(=O)N(C)[C@@H]([C@H](C)CN2CC3CCC(C2)O3)C(=O)N[C@@H](C(C)C)C(=O)N(C)[C@@H](CC(C)C)C(=O)N[C@@H](C)C(=O)N[C@H](C)C(=O)N(C)[C@@H](CC(C)C)C(=O)N(C)[C@@H](CC(C)C)C(=O)N(C)[C@@H](C(C)C)C(=O)N1C [Compound 2.5.3, 3-[D-Ala]-4-[(2S,3R)-4-(8-oxa-3-azabicyclo[3.2.1]octan-3-yl)-3-methyl-2-(methylamino)butanoyl]-cyclosporin] (cyclo([MeBmt][Abu][dNMeA][X46]V[NMeL]A[dA][NMeL][NMeL][NMeV])) | 0.042 | 5.8 | 1.7 | 2.4 | 1.8 | 0.0014 | –
C/C=C/C[C@@H](C)[C@@H](O)[C@H]1C(=O)N[C@@H](CC)C(=O)N(C)[C@H](C)C(=O)N(C)[C@@H]([C@H](C)CCN2CCOC[C@@H]2C)C(=O)N[C@@H](C(C)C)C(=O)N(C)[C@@H](CC(C)C)C(=O)N[C@@H](C)C(=O)N[C@H](C)C(=O)N(C)[C@@H](CC(C)C)C(=O)N(C)[C@@H](CC(C)C)C(=O)N(C)[C@@H](C(C)C)C(=O)N1C [Compound 2.18.4] (cyclo(A[dA][NMeL][NMeL][NMeV][MeBmt][Abu][dNMeA][X67]V[NMeL])) | – | 10.6 | 1.7 | 1.2 | 0.7 | 0.0007 | 0.044
C/C=C/C[C@@H](C)[C@@H](O)[C@H]1C(=O)N[C@@H](CC)C(=O)N(C)[C@H](C)C(=O)N(C)[C@@H]([C@H](C)CN(C)CC(=O)N(C)C)C(=O)N[C@@H](C(C)C)C(=O)N(C)[C@@H](CC(C)C)C(=O)N[C@@H](C)C(=O)N[C@H](C)C(=O)N(C)[C@@H](CC(C)C)C(=O)N(C)[C@@H](CC(C)C)C(=O)N(C)[C@@H](C(C)C)C(=O)N1C [Compound 2.5.27, 3-[D-Ala]-4-[(2S,3R)-4-((2-(dimethylamino)-2-oxoethyl)(methyl)amino)-3-methyl-2-(methylamino)butanoyl]-cyclosporin] (cyclo(A[dA][NMeL][NMeL][NMeV][MeBmt][Abu][dNMeA][X55]V[NMeL])) | – | 14.8 | 2.7 | 1.4 | 0.8 | 0.0008 | 0.026
C/C=C/C[C@@H](C)[C@@H](O)[C@H]1C(=O)N[C@@H](CC)C(=O)N(C)[C@H](C)C(=O)N(C)[C@@H]([C@@H](C)COC(=O)N2CCN(CC)CC2)C(=O)N[C@@H](C(C)C)C(=O)N(C)[C@@H](CC(C)C)C(=O)N[C@@H](C)C(=O)N[C@H](C)C(=O)N(C)[C@@H](CC(C)C)C(=O)N(C)[C@@H](CC(C)C)C(=O)N(C)[C@@H](C(C)C)C(=O)N1C [Compound 2.17.14, 3-[D-Ala]-4-[(2S,3R)-4-((4-ethylpiperazine-1-carbonyl)oxy)-3-methyl-2-(methylamino)butanoyl]-cyclosporin] (cyclo(A[dA][NMeL][NMeL][NMeV][MeBmt][Abu][dNMeA][X28]V[NMeL])) | – | 8.1 | 2.2 | 0.5 | 0.4 | 0.0005 | 0.057
C/C=C/C[C@@H](C)[C@@H](O)[C@H]1C(=O)N[C@@H](CC)C(=O)N(C)[C@H](C)C(=O)N(C)[C@@H]([C@H](C)CCC(=O)N2CCN(C)CC2)C(=O)N[C@@H](C(C)C)C(=O)N(C)[C@@H](CC(C)C)C(=O)N[C@@H](C)C(=O)N[C@H](C)C(=O)N(C)[C@@H](CC(C)C)C(=O)N(C)[C@@H](CC(C)C)C(=O)N(C)[C@@H](C(C)C)C(=O)N1C [Compound 2.14.3, 3-[D-Ala]-4-[(2S,3R)-3-methyl-2-(methylamino)-6-(4-methylpiperazin-1-yl)-6-oxohexanoyl]-cyclosporin] (cyclo(A[dA][NMeL][NMeL][NMeV][MeBmt][Abu][dNMeA][X49]V[NMeL])) | – | 14.1 | 5.4 | 2.0 | 0.9 | 0.0009 | 0.19
C/C=C/C[C@@H](C)[C@@H](O)[C@H]1C(=O)N[C@@H](CC)C(=O)N(C)[C@H](C)C(=O)N(C)[C@@H]([C@H](C)CN2CCC3(CC2)OCCO3)C(=O)N[C@@H](C(C)C)C(=O)N(C)[C@@H](CC(C)C)C(=O)N[C@@H](C)C(=O)N[C@H](C)C(=O)N(C)[C@@H](CC(C)C)C(=O)N(C)[C@@H](CC(C)C)C(=O)N(C)[C@@H](C(C)C)C(=O)N1C [Compound 2.5.28, 3-[D-Ala]-4-[(2S,3R)-3-methyl-2-(methylamino)-4-(1,4-dioxa-8-azaspiro[4.5]decan-8-yl)butanoyl]-cyclosporin] (cyclo(A[dA][NMeL][NMeL][NMeV][MeBmt][Abu][dNMeA][X35]V[NMeL])) | – | 6.1 | 2.1 | 1.4 | 0.8 | 0.0008 | 0.017
C/C=C/C[C@@H](C)[C@@H](O)[C@H]1C(=O)N[C@@H](CC)C(=O)N(C)[C@H](C)C(=O)N(C)[C@@H]([C@H](C)CN(C)Cc2cccnc2)C(=O)N[C@@H](C(C)C)C(=O)N(C)[C@@H](CC(C)C)C(=O)N[C@@H](C)C(=O)N[C@H](C)C(=O)N(C)[C@@H](CC(C)C)C(=O)N(C)[C@@H](CC(C)C)C(=O)N(C)[C@@H](C(C)C)C(=O)N1C [Compound 2.5.25, 3-[D-Ala]-4-[(2S,3R)-3-methyl-4-(methyl(pyridin-3-ylmethyl)amino)-2-(methylamino)butanoyl]-cyclosporin] (cyclo(A[dA][NMeL][NMeL][NMeV][MeBmt][Abu][dNMeA][X53]V[NMeL])) | – | 5.6 | 1 | 1.8 | 1.0 | 0.001 | 0.022
C/C=C/C[C@@H](C)[C@@H](O)[C@H]1C(=O)N[C@@H](CC)C(=O)N(C)[C@H](C)C(=O)N(C)[C@@H]([C@@H](C)CN2CCN(S(C)(=O)=O)CC2)C(=O)N[C@@H](C(C)C)C(=O)N(C)[C@@H](CC(C)C)C(=O)N[C@@H](C)C(=O)N[C@H](C)C(=O)N(C)[C@@H](CC(C)C)C(=O)N(C)[C@@H](CC(C)C)C(=O)N(C)[C@@H](C(C)C)C(=O)N1C [Compound 2.17.9, 3-[D-Ala]-4-[(2S,3S)-3-methyl-2-(methylamino)-4-(4-(methylsulfonyl)piperazin-1-yl)butanoyl]-cyclosporin] (cyclo(A[dA][NMeL][NMeL][NMeV][MeBmt][Abu][dNMeA][X48]V[NMeL])) | – | 31.9 | 0.4 | 0.9 | 0.6 | 0.0005 | 0.023
